Values after ≈ are worked out from the molar mass of the structure shown.
Legend:
Assay type in all cases: functional
Staphylococcus aureus [1] = test: Antibacterial activity against Staphylococcus aureus assessed as inhibition of bacterial growth
Staphylococcus aureus [2] = test: Antibacterial activity against methicillin resistant Staphylococcus aureus N315 assessed as inhibition of bacterial growth
Enterococcus faecalis = test: Antibacterial activity against Enterococcus faecalis assessed as inhibition of bacterial growth
Staphylococcus aureus [3] = test: Antibacterial activity against Staphylococcus aureus ATCC 25923 assessed as inhibition of bacterial growth
Staphylococcus aureus [4] = test: Antibacterial activity against Staphylococcus aureus ATCC 29213 assessed as inhibition of bacterial growth
Klebsiella pneumoniae = test: Antibacterial activity against Klebsiella pneumoniae assessed as inhibition of bacterial growth
Escherichia coli [5] = test: Antibacterial activity against Escherichia coli assessed as inhibition of bacterial growth
Escherichia coli [6] = test: Antibacterial activity against Escherichia coli ATCC 25922 assessed as inhibition of bacterial growth
Pseudomonas aeruginosa [7] = test: Antibacterial activity against Pseudomonas aeruginosa assessed as inhibition of bacterial growth
Pseudomonas aeruginosa [8] = test: Antibacterial activity against Pseudomonas aeruginosa ATCC 27853 assessed as inhibition of bacterial growth
Acinetobacter baumannii = test: Antibacterial activity against Acinetobacter baumannii assessed as inhibition of bacterial growth

Compound | MIC (Staphylococcus aureus [1]) | MIC (Staphylococcus aureus [2]) | MIC (Enterococcus faecalis) | MIC (Staphylococcus aureus [3]) | MIC (Staphylococcus aureus [4]) | MIC (Klebsiella pneumoniae) | MIC (Escherichia coli [5]) | MIC (Escherichia coli [6]) | MIC (Pseudomonas aeruginosa [7]) | MIC (Pseudomonas aeruginosa [8]) | MIC (Acinetobacter baumannii)
Cc1cc(=O)oc2cc(/N=C3/S/C(=C\c4csc5ccccc45)C(=O)N3CCO)ccc12 | 128 mg/L (≈ 277 µM) | 128 mg/L (≈ 277 µM) | 64 mg/L (≈ 138 µM) | 256 mg/L (≈ 553 µM) | 128 mg/L (≈ 277 µM) | 32 mg/L (≈ 69.2 µM) | 128 mg/L (≈ 277 µM) | 64 mg/L (≈ 138 µM) | 128 mg/L (≈ 277 µM) | 64 mg/L (≈ 138 µM) | 8 mg/L (≈ 17.3 µM)
Cc1cc(=O)oc2cc(/N=C3/S/C(=C\c4ccc(F)cc4F)C(=O)N3CCO)ccc12 | 32 mg/L (≈ 72.3 µM) | 64 mg/L (≈ 145 µM) | 2 mg/L (≈ 4.52 µM) | 4 mg/L (≈ 9.04 µM) | 32 mg/L (≈ 72.3 µM) | 64 mg/L (≈ 145 µM) | 64 mg/L (≈ 145 µM) | 128 mg/L (≈ 289 µM) | 64 mg/L (≈ 145 µM) | 32 mg/L (≈ 72.3 µM) | 64 mg/L (≈ 145 µM)
Cc1cc(=O)oc2cc(/N=C3/S/C(=C\c4cccs4)C(=O)N3CCO)ccc12 | 4 mg/L (≈ 9.7 µM) | 128 mg/L (≈ 310 µM) | 4 mg/L (≈ 9.7 µM) | 32 mg/L (≈ 77.6 µM) | 1 mg/L (≈ 2.42 µM) | 64 mg/L (≈ 155 µM) | 32 mg/L (≈ 77.6 µM) | 32 mg/L (≈ 77.6 µM) | 16 mg/L (≈ 38.8 µM) | 1 mg/L (≈ 2.42 µM) | 1 mg/L (≈ 2.42 µM)
Cc1cc(=O)oc2cc(/N=C3/S/C(=C\c4ccc(Cl)cc4)C(=O)N3CCO)ccc12 | 128 mg/L (≈ 290 µM) | 16 mg/L (≈ 36.3 µM) | 128 mg/L (≈ 290 µM) | 8 mg/L (≈ 18.1 µM) | 4 mg/L (≈ 9.07 µM) | 128 mg/L (≈ 290 µM) | 64 mg/L (≈ 145 µM) | 2 mg/L (≈ 4.54 µM) | 2 mg/L (≈ 4.54 µM) | 8 mg/L (≈ 18.1 µM) | 32 mg/L (≈ 72.6 µM)
Cc1cc(=O)oc2cc(/N=C3/S/C(=C\c4ccc(C#N)cc4)C(=O)N3CCO)ccc12 | 1 mg/L (≈ 2.32 µM) | 2 mg/L (≈ 4.64 µM) | 4 mg/L (≈ 9.27 µM) | 8 mg/L (≈ 18.5 µM) | 128 mg/L (≈ 297 µM) | 128 mg/L (≈ 297 µM) | 256 mg/L (≈ 593 µM) | 256 mg/L (≈ 593 µM) | 128 mg/L (≈ 297 µM) | 256 mg/L (≈ 593 µM) | 0.5 mg/L (≈ 1.16 µM)
Cc1cc(=O)oc2cc(/N=C3/SCC(=O)N3CCO)ccc12 | 128 mg/L (≈ 402 µM) | 128 mg/L (≈ 402 µM) | 128 mg/L (≈ 402 µM) | 16 mg/L (≈ 50.3 µM) | 64 mg/L (≈ 201 µM) | 128 mg/L (≈ 402 µM) | 2 mg/L (≈ 6.28 µM) | 64 mg/L (≈ 201 µM) | 128 mg/L (≈ 402 µM) | 32 mg/L (≈ 101 µM) | 0.5 mg/L (≈ 1.57 µM)
Cc1cc(=O)oc2cc(/N=C3/S/C(=C\c4ccc(O)c(Cl)c4)C(=O)N3CCO)ccc12 | 32 mg/L (≈ 70 µM) | 64 mg/L (≈ 140 µM) | 8 mg/L (≈ 17.5 µM) | 128 mg/L (≈ 280 µM) | 256 mg/L (≈ 560 µM) | 32 mg/L (≈ 70 µM) | 16 mg/L (≈ 35 µM) | 32 mg/L (≈ 70 µM) | 32 mg/L (≈ 70 µM) | 4 mg/L (≈ 8.75 µM) | 16 mg/L (≈ 35 µM)
COc1ccc(/C=C2\S/C(=N/c3ccc4c(C)cc(=O)oc4c3)N(CCO)C2=O)cc1 | 32 mg/L (≈ 73.3 µM) | 4 mg/L (≈ 9.16 µM) | 8 mg/L (≈ 18.3 µM) | 32 mg/L (≈ 73.3 µM) | 0.5 mg/L (≈ 1.15 µM) | 128 mg/L (≈ 293 µM) | 32 mg/L (≈ 73.3 µM) | 128 mg/L (≈ 293 µM) | 64 mg/L (≈ 147 µM) | 128 mg/L (≈ 293 µM) | 8 mg/L (≈ 18.3 µM)
Cc1cc(=O)oc2cc(/N=C3/S/C(=C\c4ccccc4)C(=O)N3CCO)ccc12 | 64 mg/L (≈ 157 µM) | 64 mg/L (≈ 157 µM) | 128 mg/L (≈ 315 µM) | 128 mg/L (≈ 315 µM) | 128 mg/L (≈ 315 µM) | 256 mg/L (≈ 630 µM) | 256 mg/L (≈ 630 µM) | 256 mg/L (≈ 630 µM) | 64 mg/L (≈ 157 µM) | 64 mg/L (≈ 157 µM) | 1 mg/L (≈ 2.46 µM)
Cc1cc(=O)oc2cc(/N=C3/S/C(=C\c4ccc([N+](=O)[O-])cc4)C(=O)N3CCO)ccc12 | 64 mg/L (≈ 142 µM) | 32 mg/L (≈ 70.9 µM) | 32 mg/L (≈ 70.9 µM) | 128 mg/L (≈ 284 µM) | 64 mg/L (≈ 142 µM) | 64 mg/L (≈ 142 µM) | 128 mg/L (≈ 284 µM) | 64 mg/L (≈ 142 µM) | 64 mg/L (≈ 142 µM) | 128 mg/L (≈ 284 µM) | 32 mg/L (≈ 70.9 µM)
Cc1cc(=O)oc2cc(/N=C3/S/C(=C\c4nccs4)C(=O)N3CCO)ccc12 | 16 mg/L (≈ 38.7 µM) | 64 mg/L (≈ 155 µM) | 4 mg/L (≈ 9.67 µM) | 1 mg/L (≈ 2.42 µM) | 64 mg/L (≈ 155 µM) | 2 mg/L (≈ 4.84 µM) | 128 mg/L (≈ 310 µM) | 256 mg/L (≈ 619 µM) | 128 mg/L (≈ 310 µM) | 128 mg/L (≈ 310 µM) | 1 mg/L (≈ 2.42 µM)
Cc1cc(=O)oc2cc(/N=C3/S/C(=C\c4ncc[nH]4)C(=O)N3CCO)ccc12 | 8 mg/L (≈ 20.2 µM) | 64 mg/L (≈ 161 µM) | 64 mg/L (≈ 161 µM) | 128 mg/L (≈ 323 µM) | 32 mg/L (≈ 80.7 µM) | 16 mg/L (≈ 40.4 µM) | 32 mg/L (≈ 80.7 µM) | 64 mg/L (≈ 161 µM) | 32 mg/L (≈ 80.7 µM) | 128 mg/L (≈ 323 µM) | 16 mg/L (≈ 40.4 µM)
CCCCc1nc(Cl)c(/C=C2\S/C(=N/c3ccc4c(C)cc(=O)oc4c3)N(CCO)C2=O)[nH]1 | 8 mg/L (≈ 16.4 µM) | 128 mg/L (≈ 263 µM) | 128 mg/L (≈ 263 µM) | 128 mg/L (≈ 263 µM) | 64 mg/L (≈ 131 µM) | 64 mg/L (≈ 131 µM) | 32 mg/L (≈ 65.7 µM) | 64 mg/L (≈ 131 µM) | 256 mg/L (≈ 526 µM) | 256 mg/L (≈ 526 µM) | 64 mg/L (≈ 131 µM)
C=CCn1cc(/C=C2\S/C(=N/c3ccc4c(C)cc(=O)oc4c3)N(CCO)C2=O)c2ccccc21 | 128 mg/L (≈ 264 µM) | 128 mg/L (≈ 264 µM) | 128 mg/L (≈ 264 µM) | 32 mg/L (≈ 65.9 µM) | 64 mg/L (≈ 132 µM) | 8 mg/L (≈ 16.5 µM) | 128 mg/L (≈ 264 µM) | 128 mg/L (≈ 264 µM) | 64 mg/L (≈ 132 µM) | 32 mg/L (≈ 65.9 µM) | 64 mg/L (≈ 132 µM)

Reference: ChEMBL document CHEMBL5131495, “Discovery of unique thiazolidinone-conjugated coumarins as novel broad spectrum antibacterial agents” (Eur J Med Chem, 2022)
